Assay results taken from PMC7683729, “Altered conformational sampling along an evolutionary trajectory changes the catalytic activity of an enzyme” (Nature Communications, 2020).

What was measured:
AncCDT-5 = test system: T1, AncCDT-5; assay: end-point spectrophotometric phenylpyruvate formation ([…] nm); type: biochemical; details: equal volumes of protein in 20 mM Na2HPO4, 150 mM NaCl pH 7.4 and prephenate in 50 mM Na2HPO4 pH 8.0; room temperature (20–25 °C)
T1 construct: ancestral protein ending at Lys235; pDOTS7 vector, His6-tagged, expressed in E. coli delta-pheA; IMAC and SEC; predominantly monomeric

[1] = target: the molecule itself; assay: SEC-MALS; 100 μL of each protein loaded at 10 mg mL^-1 on Superdex 200 10/300 GL; 20 mM Na2HPO4, 150 mM NaCl, pH 7.4; 0.5 mL min^-1; single experiment (n = 1)

Molecule	Km (AncCDT-5) [µM]	stoichiometry N [1]
O=C(O)C(=O)CC1(C(=O)O)C=CC(O)C=C1 (centres unmarked) [prephenate]	277 ± 4	
cyclohexadienyl dehydratase from Pseudomonas aeruginosa (PaCDT) (enzyme, UniProt Q01269 26-268, looked up, cyclohexadienyl dehydratase, Pseudomonas aeruginosa, UniProt Q01269 residues 26-268; PDB 5HPQ and 6BQE number - 11); source: E. coli K-12 ΔpheA (pDOTS7), IMAC-purified; not shown: His6, N-terminal, kept) QESRLDRILESGVLRVATTGDYKPFSYRTEEGGYAGFDVDMAQRLAESLGAKLVVVPTSWPNLMRDFADDRFDIAMSGISINLERQRQAYFSIPYLRDGKTPITLCSEEARFQTLEQIDQPGVTAIVNPGGTNEKFARANLKKARILVHPDNVTIFQQIVDGKADLMMTDAIEARLQSRLHPELCAVHPQQPFDFAEKAYLLPRDEAFKRYVDQWLHIAEQSGLLRQRMEHWLEYRWPTAHGK		3
